PMC3563528, “Ultrashort Cationic Lipopeptides and Lipopeptoids Selectively Induce Cytokine Production in Macrophages” (PLoS ONE, 2013)
Where “and” joins values, the source holds several entries; their conditions need not be identical. Identical values can stand only once. Marks after values point to notes of the source that are not given here.

Tests used:
[1] = test system: human macrophage-like THP-1 cells; assay: IL-1β production by ELISA in TC supernatants; format: cell-based; conditions: 24 h exposure
Procedure: Figure 3 IL-1β production. Human macrophage-like THP-1 cells were exposed to amphiphiles 4–11 and 14–21, for twenty-four hours. TC supernatants were monitored for IL-1β by ELISA, with results shown in pg/mL. Studies were performed in two independent biological replicates with two technical replicate each, with the data here presented as the mean plus sem. Inset: Expanded results for the negative control and amphiphiles 4–7 at 5 µM and 10 µM.
(§1) ELISA results were obtained from two biological replicates with two technical replicates each and statistical analyses was performed using Student paired t-test. Error bars in the graphs represents standard error of the mean, and a p-value of less that 0.05 was considered to be statistically significant.

[2] = test system: S.aureus ATCC 29213; parameters: method as in earlier work; conditions: data from previous studies converted into µM; cited from earlier work
[3] = test system: MRSA ATCC 33592; parameters: method as in earlier work; conditions: data from previous studies converted into µM; cited from earlier work
[4] = test system: MSSE 81388 CANWARD 2008; parameters: method as in earlier work; conditions: data from previous studies converted into µM; cited from earlier work
[5] = test system: MRSE (CZ >32) CAN-ICU 61589; parameters: method as in earlier work; conditions: data from previous studies converted into µM; cited from earlier work
[6] = test system: human macrophage-like THP-1 cells; assay: IL-8 production by ELISA in TC supernatants; format: cell-based; conditions: 24 h exposure; for IL-8 production: mean ± sem; for IL-8 induction (in words): concentrations tested up to 100 µM
Procedure: (§2) Prior to testing, human monocytic THP-1 cells were differentiated to plastic-adherent macrophage-like THP-1 cells as previously described. The cells were rested for twenty-four hours, then exposed to the amphiphiles of interest for twenty-four hours. Cell free TC supernatants were monitored for the production of chemokines Groα and IL-8 by ELISA as previously described, [34]. The constitutive background level of chemokine Groα was 6.6±1.8 pg/ml, and that of IL-8 was 1.7±0.16 ng/ml. Encouragingly, the majority of compounds were strong inducers of both IL-8 and Groα and increased chemokine levels above background (Figure 2). […] The three amphiphiles with a LysLysLys peptide sequence and lipid tail at least sixteen carbons in length, 5–7, were especially strong inducers of IL-8, increasing the concentration to 5–8 ng/mL (p<0.05) above control at 10 µM of lipopeptide, and up to 13 ng/mL (p<0.01) above control at 50 µM (Figure 2). These amphiphiles compared favourably to LL-37 (1.3 ng/mL of IL-8 above control at 10 µM), despite their brief peptide sequence. […] All lipopeptides with lipid tails shorter than sixteen carbons were unable to induce either IL-8 or Groα at concentrations up to 100 µM (Figure 2, Figure S1).
as §1

[7] = test system: human macrophage-like THP-1 cells; assay: Groα production by ELISA in TC supernatants; format: cell-based; conditions: 24 h exposure; for Groα induction (in words): concentrations tested up to 100 µM
Procedure: as §2, §1

[8] = test system: Gram positive strains; conditions: in vitro; cited from earlier work
Source text: We have shown that ultrashort lipopeptides and lipopeptoids are able to induce selective cytokine production in human macrophages, despite little structural similarity to any known host defence peptide or CAMP.

[9] = test system: human macrophage-like THP-1 cells; assay: TNF-α production by ELISA in TC supernatants; format: cell-based; conditions: any concentration tested, at or below 100 µM, 24 h exposure
Procedure: as §1
Supplementary file pone.0054280.s002.tiff: Figure S2 TNF-α production by human macrophage-like THP-1 cells following incubation with amphiphiles 1–21. TC supernatants were monitored for cytokine production via ELISA, and results are reported in pg/mL. All studies were performed in two independent biological replicates with two technical replicates each. (TIFF) Click here for additional data file.

[10] = 50 µM amphiphile, two biological replicates with two technical replicates each
[11] = 50 µM amphiphile, mean ± sem, two biological replicates with two technical replicates each

Substance: C20-LysLysLys-NH2 [compound 7]
- Increase of IL-1β concentration ([1]; moving from 10 µM to 50 µM): over forty-fold
- Antimicrobial activity (MIC) [2]: 7.7 µM
- Antimicrobial activity (MIC) [3]: 7.7 µM
- Antimicrobial activity (MIC) [4]: 7.7 µM
- Antimicrobial activity (MIC) [5]: 7.7 µM

Substance: C20-HarHarHar-NH2 [compound 11]
- IL-8 production [6, 10]: up to 10 ng/mL

Substance: C16OH-LysGlyLys-NH2 [compound 2]
- IL-8 induction (in words) [6]: failed to significantly increase IL-8 production

Substance: C11-NLysGlyNLys-NH2 [compound 12]
- IL-8 induction (in words) [6]: inactive
- Groα induction (in words) [7]: inactive

Substance: LLGDFFRKSKEKIGKEFKRIVQRIKDFLRNLVPRTES-OH [LL-37, human cathelicidin LL-37, natural host defence peptide, positive control, reference compound]
- IL-8 above control ([6]; 10 µM amphiphile, two biological replicates with two technical replicates each): 1.3 ng/mL
- Groα production ([7]; 2.5 µM): 800 pg/mL

Substance: C16-LysLysLys-NH2 [compound 5]
- IL-8 production [6, 10]: 7.7 ± 0.6 ng/mL
- Antimicrobial activity (MIC) [2]: 8.1 µM
- Antimicrobial activity (MIC) [3]: 4.1 µM
- Antimicrobial activity (MIC) [4]: <0.25 µM
- Antimicrobial activity (MIC) [5]: <0.25 µM

Substance: C16OH-LysLysLys-NH2 [compound 6]
- IL-8 production [6, 10]: 12.5 ± 0.5 ng/mL
- Groα production [7, 11]: 670 pg/mL
- Antimicrobial activity (MIC) [2]: 128 µM
- Antimicrobial activity (MIC) [3]: 128 µM
- Antimicrobial activity (MIC) [4]: 128 µM
- Antimicrobial activity (MIC) [5]: 128 µM

Substance: C16-LysGlyLys-NH2 [compound 1]
- IL-8 above control [6, 10]: 0.2 ng/mL

Substance: C20-NHarNHarNHar-NH2 [compound 21]
- IL-8 production ([6]; 50 and 100 µM amphiphile): 6 ± 0.8 ng/mL
- IL-8 induction (in words) [6]: moderate inducer
- Groα production [7, 11]: 996 ± 4 pg/mL and 1000 pg/mL
- Groα production ([7]; 100 µM amphiphile): 200 pg/mL
- Groα induction (in words) [7]: strongest inducer
- Antimicrobial activity (MIC) [2]: 6.9 µM
- Antimicrobial activity (MIC) [3]: 14 µM
- Antimicrobial activity (MIC) [4]: 6.9 µM
- Antimicrobial activity (MIC) [5]: 6.9 µM
- MIC [8]: ≤ 16 µg/mL

Substance: C16OH-NHarNHarNHar-NH2 [compound 20]
- IL-8 induction (in words) [6]: moderate inducers
- Groα induction (in words) [7]: moderate inducers
- TNF-α induction (in words) [9]: did not induce
- IL-1β induction (in words) [1]: did not induce

Substance: C20-LysGlyLys-NH2 [compound 3]
- IL-8 induction (in words) [6]: failed to significantly increase IL-8 production

Substance: C16OH-NLysNLysNLys-NH2 [compound 16]
- IL-8 induction (in words) [6]: moderate inducers
- Groα induction (in words) [7]: moderate inducers
- TNF-α induction (in words) [9]: did not induce
- IL-1β induction (in words) [1]: did not induce

Substance: C16-NLysGlyNLys-NH2 [compound 13]
- IL-8 induction (in words) [6]: inactive
- Groα induction (in words) [7]: inactive

Substance: C16OH-HarHarHar -NH2 [compound 10]
- IL-8 production [6, 10]: up to 10 ng/mL

Substance: C11-LysLysLys-NH2 [compound 4]
- Antimicrobial activity (MIC) [2]: 561^a μM
- Antimicrobial activity (MIC) [3]: >561 µM
- Antimicrobial activity (MIC) [4]: 281 µM
- Antimicrobial activity (MIC) [5]: 281 µM
